Measurements taken from the supplement of paper PMC10307832.

Assays:
Assay in all cases: relative viability (nuclei count vs DMSO), 5 days (fraction); higher = more cells survive
AGI-6780 + Navitoclax = compound: O=C(Nc1cccc(C(F)(F)F)c1)Nc1cc(S(=O)(=O)NC2CC2)ccc1-c1ccsc1 [AGI-6780] + CC1(C)CCC(c2ccc(Cl)cc2)=C(CN2CCN(c3ccc(C(=O)NS(=O)(=O)c4ccc(N[C@H](CCN5CCOCC5)CSc5ccccc5)c(S(=O)(=O)C(F)(F)F)c4)cc3)CC2)C1 [Navitoclax] (partner 0.5 µM)
Summary of the method: (§1)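 Relative viability is defined as nuclei in treated wells over nuclei in vehicle wells. Duplicate plates were run and medians reported. Lung cancer cell lines in 1536-well plates were dosed by pin tool one day after seeding, with one drug or with a fixed anchor-drug dose plus five library-drug doses (not always all listed) in √10 steps, and nuclei were counted after 5 days.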

AGI-6780 + Linsitinib = compound: O=C(Nc1cccc(C(F)(F)F)c1)Nc1cc(S(=O)(=O)NC2CC2)ccc1-c1ccsc1 [AGI-6780] + C[C@]1(O)C[C@@H](c2nc(-c3ccc4ccc(-c5ccccc5)nc4c3)c3c(N)nccn32)C1 [Linsitinib] (partner 1 µM)
Summary of the method: as §1

AGI-6780 + Pemetrexed = compound: O=C(Nc1cccc(C(F)(F)F)c1)Nc1cc(S(=O)(=O)NC2CC2)ccc1-c1ccsc1 [AGI-6780] + Nc1nc2[nH]cc(CCc3ccc(C(=O)N[C@@H](CCC(=O)O)C(=O)O)cc3)c2c(=O)[nH]1 [Pemetrexed] (partner 0.2 µM)
Summary of the method: as §1

AGI-6780 + Vorinostat = compound: O=C(Nc1cccc(C(F)(F)F)c1)Nc1cc(S(=O)(=O)NC2CC2)ccc1-c1ccsc1 [AGI-6780] + O=C(CCCCCCC(=O)Nc1ccccc1)NO [Vorinostat] (partner 1 µM)
Summary of the method: as §1

| Cell Line | relative viability (AGI-6780 + Navitoclax; first compound 0.08 µM) | relative viability (AGI-6780 + Navitoclax; first compound 0.253 µM) | relative viability (AGI-6780 + Navitoclax; first compound 0.8 µM) | relative viability (AGI-6780 + Navitoclax; first compound 2.53 µM) | relative viability (AGI-6780 + Navitoclax; first compound 8 µM) | relative viability (AGI-6780 + Linsitinib; first compound 0.08 µM) | relative viability (AGI-6780 + Linsitinib; first compound 0.253 µM) | relative viability (AGI-6780 + Linsitinib; first compound 0.8 µM) | relative viability (AGI-6780 + Linsitinib; first compound 2.53 µM) | relative viability (AGI-6780 + Linsitinib; first compound 8 µM) | relative viability (AGI-6780 + Pemetrexed; first compound 0.08 µM) | relative viability (AGI-6780 + Pemetrexed; first compound 0.253 µM) | relative viability (AGI-6780 + Pemetrexed; first compound 0.8 µM) | relative viability (AGI-6780 + Pemetrexed; first compound 2.53 µM) | relative viability (AGI-6780 + Pemetrexed; first compound 8 µM) | relative viability (AGI-6780 + Vorinostat; first compound 0.08 µM) | relative viability (AGI-6780 + Vorinostat; first compound 0.253 µM) | relative viability (AGI-6780 + Vorinostat; first compound 0.8 µM) | relative viability (AGI-6780 + Vorinostat; first compound 2.53 µM) | relative viability (AGI-6780 + Vorinostat; first compound 8 µM) |
| --- | --- | --- | --- | --- | --- | --- | --- | --- | --- | --- | --- | --- | --- | --- | --- | --- | --- | --- | --- | --- |
| 201T | 1.26 | 1.19 | 1.24 | 1.18 | 1.26 | 1.06 | 1.06 | 1.02 | 0.993 | 1.01 | 0.34 | 0.325 | 0.345 | 0.31 | 0.291 | 0.991 | 0.98 | 1.06 | 0.951 | 1.04 |
| A-427 | 0.942 | 0.922 | 1 | 0.81 | 0.942 | 1.09 | 1.07 | 1.1 | 1.03 | 1.12 |  | 0.932 | 1.01 | 0.929 | 0.971 |  | 0.82 | 0.857 | 0.816 | 0.836 |
| ABC-1 |  |  |  |  |  | 0.756 | 0.501 | 0.835 | 0.736 | 0.601 |  |  |  |  |  |  | 1.52 | 1.38 | 0.842 | 1.03 |
| BEN | 0.0592 | 0.0703 | 0.0549 |  | 0.0845 | 0.894 | 0.845 | 1.07 |  | 0.971 | 0.644 | 0.876 | 0.718 |  | 0.965 | 0.62 | 0.539 | 0.692 |  | 0.629 |
| CAL-12T | 1.2 | 1.17 | 1.38 | 1.53 | 1.25 | 0.771 | 0.726 | 0.72 | 1 | 0.892 | 1.25 | 1.27 | 1.35 | 1.25 | 1.26 | 0.884 | 0.729 | 1.16 | 0.662 | 0.732 |
| COR-L23 | 1.01 | 0.961 | 0.985 | 1.02 | 1.11 | 0.969 | 0.766 | 0.77 | 1.08 | 0.891 | 0.213 | 0.215 | 0.206 | 0.207 | 0.188 | 0.348 | 0.425 | 0.429 | 0.554 | 0.453 |
| COR-L 105 | 0.918 | 0.62 | 0.841 | 0.862 | 0.763 | 0.989 | 0.946 | 0.941 | 0.808 | 0.952 | 1.26 | 0.965 | 1.17 | 0.923 | 1.08 | 0.908 | 1.34 | 0.975 | 0.97 | 0.841 |
| Calu-6 | 0.948 | 0.815 | 0.846 | 0.833 | 0.891 | 0.984 | 1.02 | 0.897 | 0.852 | 0.955 |  |  |  |  |  |  |  |  |  |  |
| ChaGo-K-1 | 0.894 | 1.25 | 1.15 | 0.746 | 0.992 |  |  |  |  |  | 0.26 | 0.267 | 0.261 | 0.255 | 0.25 | 0.727 | 0.787 | 0.745 | 0.63 | 0.825 |
| EBC-1 | 0.407 | 0.429 | 0.365 | 0.512 | 0.38 | 0.861 | 1.13 | 0.885 | 0.836 | 0.94 |  |  |  |  |  |  |  |  |  |  |
| EKVX | 1.02 | 0.879 | 0.935 | 0.717 | 0.978 | 1.09 | 1.03 | 0.966 | 1.05 | 1.04 | 0.381 | 0.403 | 0.342 | 0.388 | 0.4 | 0.827 | 0.686 | 0.752 | 0.721 | 0.614 |
| EMC-BAC-2 | 1.19 | 1.14 | 1.23 | 1.14 | 1.17 | 0.845 | 0.82 | 0.835 | 0.782 | 0.822 |  | 0.434 | 0.43 | 0.55 | 0.44 |  | 0.453 | 0.809 | 0.4 | 0.421 |
| EPLC-272H | 1.17 | 1.37 | 1.02 | 0.918 | 1.08 | 1.28 | 1.43 | 1.21 | 1.03 | 1.11 | 0.302 | 0.4 | 0.27 | 0.398 | 0.272 | 0.351 | 0.401 | 0.318 | 0.554 | 0.289 |
| H3255 | 0.395 | 0.537 | 0.688 | 0.292 | 0.516 | 1 | 0.947 | 0.96 | 0.968 | 0.969 | 0.554 | 0.549 | 0.636 | 0.629 | 0.581 | 0.541 | 0.865 | 0.893 |  | 0.867 |
| HARA | 1.2 | 1.15 | 1.09 | 1.19 | 1.19 | 0.921 | 0.949 | 0.841 | 0.971 | 0.985 | 0.248 | 0.266 | 0.199 | 0.271 | 0.239 | 0.431 | 0.575 | 0.499 | 0.528 | 0.616 |
| HCC-15 | 0.727 | 0.698 | 0.743 | 0.641 | 0.684 | 0.897 | 0.867 | 0.941 | 0.777 | 0.821 | 0.227 | 0.245 | 0.204 | 0.215 | 0.207 | 0.917 | 0.88 | 0.875 | 0.832 | 0.828 |
| HCC-44 | 0.969 | 1.02 | 0.94 | 0.856 | 1.11 | 0.714 | 0.73 | 0.693 | 0.622 | 0.597 | 0.657 | 0.681 | 0.601 | 0.631 | 0.616 | 1.16 | 1.03 | 1.13 | 1.08 | 1.11 |
| HCC-78 | 0.845 | 0.789 | 0.9 | 0.779 | 0.801 | 0.592 | 0.491 | 0.587 | 0.561 | 0.537 | 0.957 | 0.859 | 0.908 | 0.85 | 0.927 | 0.527 | 0.411 | 0.577 | 0.432 | 0.389 |
